# Results as given in publication PMC7700746 (Bioorganic & medicinal chemistry letters, 2020).
# Legend:
# [1] = target: α5β1 integrin (Homo sapiens, UniProt P05556+P08648); experiment: Cell adhesion assay, SW480 plated on fibronectin; format: cell-based; conditions: for improvement of potency against α5β1 integrin: cell adhesion, versus alkyl-linker compounds
# [2] = target: αvβ3 integrin (Homo sapiens, UniProt P05106+P06756); experiment: Cell adhesion assay, SW480 transfected with human β3 adhering to fibrinogen; format: cell-based
# αvβ3 integrin, sequence (P06756 31-889 limits assumed): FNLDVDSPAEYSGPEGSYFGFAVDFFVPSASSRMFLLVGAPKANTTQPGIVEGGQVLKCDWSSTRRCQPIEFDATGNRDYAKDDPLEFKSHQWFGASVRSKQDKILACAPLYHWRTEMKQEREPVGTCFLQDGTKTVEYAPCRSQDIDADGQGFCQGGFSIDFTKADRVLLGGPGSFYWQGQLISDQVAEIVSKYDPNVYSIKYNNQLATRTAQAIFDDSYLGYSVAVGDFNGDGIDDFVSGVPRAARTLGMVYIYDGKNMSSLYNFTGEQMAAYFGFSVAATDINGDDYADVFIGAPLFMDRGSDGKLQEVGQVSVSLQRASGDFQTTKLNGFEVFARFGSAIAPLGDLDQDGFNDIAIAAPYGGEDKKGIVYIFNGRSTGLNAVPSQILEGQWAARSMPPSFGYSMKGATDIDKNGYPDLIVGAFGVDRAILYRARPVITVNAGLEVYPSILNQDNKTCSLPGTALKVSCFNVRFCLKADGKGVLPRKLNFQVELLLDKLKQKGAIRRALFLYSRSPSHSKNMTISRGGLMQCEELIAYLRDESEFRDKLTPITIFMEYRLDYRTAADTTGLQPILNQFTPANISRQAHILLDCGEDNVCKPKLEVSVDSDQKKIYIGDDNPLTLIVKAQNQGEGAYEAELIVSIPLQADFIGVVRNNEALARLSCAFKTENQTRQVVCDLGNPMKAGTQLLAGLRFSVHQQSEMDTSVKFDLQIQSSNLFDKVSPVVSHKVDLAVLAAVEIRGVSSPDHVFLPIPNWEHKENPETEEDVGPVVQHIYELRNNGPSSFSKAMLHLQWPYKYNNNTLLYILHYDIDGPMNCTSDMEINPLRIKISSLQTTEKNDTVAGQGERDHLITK
# αvβ3 integrin, sequence (P06756 891-1048 partner limits assumed): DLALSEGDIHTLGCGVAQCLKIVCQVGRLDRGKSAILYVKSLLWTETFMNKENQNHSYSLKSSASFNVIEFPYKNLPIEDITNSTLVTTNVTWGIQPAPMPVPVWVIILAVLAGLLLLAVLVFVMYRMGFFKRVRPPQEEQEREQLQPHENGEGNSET
# αvβ3 integrin, sequence (P05106 27-788): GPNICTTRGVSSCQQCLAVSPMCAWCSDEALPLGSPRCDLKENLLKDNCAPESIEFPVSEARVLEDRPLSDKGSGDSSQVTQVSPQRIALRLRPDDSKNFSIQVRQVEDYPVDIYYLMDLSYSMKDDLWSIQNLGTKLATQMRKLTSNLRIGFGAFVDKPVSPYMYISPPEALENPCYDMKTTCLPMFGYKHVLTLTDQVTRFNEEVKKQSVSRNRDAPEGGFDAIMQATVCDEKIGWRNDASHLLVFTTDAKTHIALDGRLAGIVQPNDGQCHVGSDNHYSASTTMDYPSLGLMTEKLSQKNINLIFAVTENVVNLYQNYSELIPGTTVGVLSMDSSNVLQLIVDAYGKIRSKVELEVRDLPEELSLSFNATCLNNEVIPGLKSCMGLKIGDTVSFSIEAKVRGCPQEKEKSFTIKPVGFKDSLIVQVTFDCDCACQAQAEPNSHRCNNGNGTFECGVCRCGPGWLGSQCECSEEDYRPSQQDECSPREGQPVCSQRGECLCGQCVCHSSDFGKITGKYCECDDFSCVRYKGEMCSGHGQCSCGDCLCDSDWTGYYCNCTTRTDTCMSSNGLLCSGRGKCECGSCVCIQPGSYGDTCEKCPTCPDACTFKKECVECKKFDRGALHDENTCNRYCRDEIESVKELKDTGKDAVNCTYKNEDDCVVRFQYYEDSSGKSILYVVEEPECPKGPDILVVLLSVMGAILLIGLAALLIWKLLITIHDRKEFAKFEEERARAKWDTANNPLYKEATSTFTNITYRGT
# [3] = target: αvβ1 integrin (UniProt G3HZ55+P06756); experiment: Cell adhesion assay, CHOαv adhering to fibronectin; format: cell-based
# αvβ1 integrin, sequence (P06756 31-889 limits assumed): as the sequence (P06756 31-889 limits assumed) above
# αvβ1 integrin, sequence (P06756 891-1048 limits assumed): as the sequence (P06756 891-1048 partner limits assumed) above
# αvβ1 integrin, sequence (G3HZ55 21-798): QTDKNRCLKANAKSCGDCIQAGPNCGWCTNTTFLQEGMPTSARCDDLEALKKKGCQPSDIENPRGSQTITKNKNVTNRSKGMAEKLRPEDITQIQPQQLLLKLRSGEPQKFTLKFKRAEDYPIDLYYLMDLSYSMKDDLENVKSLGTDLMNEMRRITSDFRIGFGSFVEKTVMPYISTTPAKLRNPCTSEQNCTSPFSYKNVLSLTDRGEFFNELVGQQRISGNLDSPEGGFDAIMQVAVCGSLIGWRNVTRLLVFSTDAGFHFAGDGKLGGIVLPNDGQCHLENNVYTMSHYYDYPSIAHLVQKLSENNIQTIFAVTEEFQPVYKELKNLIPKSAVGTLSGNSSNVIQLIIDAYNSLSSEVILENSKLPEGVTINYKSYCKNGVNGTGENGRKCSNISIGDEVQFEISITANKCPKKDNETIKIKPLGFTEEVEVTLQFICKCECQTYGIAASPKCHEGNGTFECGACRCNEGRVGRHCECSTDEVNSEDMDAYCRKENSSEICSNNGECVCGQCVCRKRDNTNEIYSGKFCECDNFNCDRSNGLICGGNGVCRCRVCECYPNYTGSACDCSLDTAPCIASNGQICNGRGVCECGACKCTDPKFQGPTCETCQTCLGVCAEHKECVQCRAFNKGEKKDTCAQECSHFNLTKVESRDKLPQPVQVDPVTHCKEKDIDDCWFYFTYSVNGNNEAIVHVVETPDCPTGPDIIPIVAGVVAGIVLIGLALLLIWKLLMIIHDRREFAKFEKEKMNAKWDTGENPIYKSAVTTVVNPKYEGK
# [4] = test system: Caco-2 cell; experiment: Caco-2 cell permeability assay; format: in vitro ADME
# [5] = Solubility; format: physicochemical
# [6] = target: α4β1 integrin (Homo sapiens, UniProt P05556+P13612); conditions: cited from earlier work
# α5β1 integrin, sequence (P08648 42-894 limits assumed): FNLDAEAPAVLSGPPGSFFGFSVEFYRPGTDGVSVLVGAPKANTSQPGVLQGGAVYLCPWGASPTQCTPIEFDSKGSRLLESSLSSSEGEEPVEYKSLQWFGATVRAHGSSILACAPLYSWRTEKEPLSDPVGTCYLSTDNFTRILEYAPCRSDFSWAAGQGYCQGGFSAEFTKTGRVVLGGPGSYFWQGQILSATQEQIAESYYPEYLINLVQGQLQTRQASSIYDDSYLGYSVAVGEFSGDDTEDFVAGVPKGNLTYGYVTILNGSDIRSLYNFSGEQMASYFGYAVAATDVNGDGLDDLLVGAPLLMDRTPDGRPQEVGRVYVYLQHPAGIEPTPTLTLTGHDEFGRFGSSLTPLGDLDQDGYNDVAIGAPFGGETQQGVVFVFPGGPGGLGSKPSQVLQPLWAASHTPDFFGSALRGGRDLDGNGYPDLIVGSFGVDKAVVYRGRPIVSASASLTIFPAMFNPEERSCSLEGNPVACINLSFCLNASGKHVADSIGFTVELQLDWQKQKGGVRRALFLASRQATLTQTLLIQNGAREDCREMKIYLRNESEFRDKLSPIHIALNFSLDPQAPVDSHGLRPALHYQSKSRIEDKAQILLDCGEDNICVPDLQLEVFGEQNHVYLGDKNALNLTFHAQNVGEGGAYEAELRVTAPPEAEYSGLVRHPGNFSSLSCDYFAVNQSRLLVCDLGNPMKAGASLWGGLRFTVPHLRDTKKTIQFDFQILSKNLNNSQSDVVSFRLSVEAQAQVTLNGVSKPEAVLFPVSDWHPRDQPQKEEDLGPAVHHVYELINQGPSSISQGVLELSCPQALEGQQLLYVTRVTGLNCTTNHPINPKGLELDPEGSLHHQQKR
# α5β1 integrin, sequence (P08648 895-1049 partner limits assumed): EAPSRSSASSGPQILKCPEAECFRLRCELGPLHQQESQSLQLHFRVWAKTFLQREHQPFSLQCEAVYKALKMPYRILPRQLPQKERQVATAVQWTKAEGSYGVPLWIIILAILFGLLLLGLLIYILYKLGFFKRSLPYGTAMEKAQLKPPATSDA
# α5β1 integrin, sequence (P05556 21-798): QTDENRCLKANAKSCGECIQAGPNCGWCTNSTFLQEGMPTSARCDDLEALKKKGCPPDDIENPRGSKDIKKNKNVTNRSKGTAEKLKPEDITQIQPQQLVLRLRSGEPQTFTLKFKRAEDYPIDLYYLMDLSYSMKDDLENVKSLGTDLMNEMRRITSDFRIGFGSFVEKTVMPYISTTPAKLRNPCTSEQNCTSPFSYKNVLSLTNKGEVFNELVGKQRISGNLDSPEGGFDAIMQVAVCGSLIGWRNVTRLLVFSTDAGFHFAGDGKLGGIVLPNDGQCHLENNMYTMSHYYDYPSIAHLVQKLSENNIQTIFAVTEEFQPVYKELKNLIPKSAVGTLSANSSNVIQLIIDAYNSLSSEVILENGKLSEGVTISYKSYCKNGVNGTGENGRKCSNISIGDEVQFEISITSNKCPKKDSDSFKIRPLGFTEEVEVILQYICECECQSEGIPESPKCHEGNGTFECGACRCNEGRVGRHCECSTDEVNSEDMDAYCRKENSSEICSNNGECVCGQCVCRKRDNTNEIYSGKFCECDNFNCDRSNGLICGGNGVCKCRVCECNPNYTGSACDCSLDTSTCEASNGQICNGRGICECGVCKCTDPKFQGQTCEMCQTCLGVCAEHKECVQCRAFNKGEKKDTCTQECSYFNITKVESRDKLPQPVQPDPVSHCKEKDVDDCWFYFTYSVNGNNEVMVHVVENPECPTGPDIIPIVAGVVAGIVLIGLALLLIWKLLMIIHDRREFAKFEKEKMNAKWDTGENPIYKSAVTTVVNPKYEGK
Compound,improvement of potency against α5β1 integrin [1],selectivity against αvβ3 integrin in cell adhesion assay (in words) [2],potency against α5β1 integrin in cell adhesion assay (in words) [1],potency against αvβ1 integrin in cell adhesion assay (in words) [3],permeability in Caco-2 cell assay (in words) [4],solubility (in words) [5],selectivity against α4β1 integrin (in words) [6]
N=C(N)Nc1cccc(C(=O)NNC(=O)NC[C@H](NC(=O)[C@@H]2CCCN2S(=O)(=O)c2ccccc2)C(=O)O)c1 [Compound 12],more than 10 fold,not still satisfactory,–,–,–,–,–
N=C(N)Nc1cc(NC(=O)CCCNC(=O)C23CC4CC(CC(C4)C2)C3)cc(C(=O)NCC(=O)NC[C@H](NC(=O)[C@@H]2CCCN2S(=O)(=O)c2ccccc2)C(=O)O)c1 [Compound 15],–,great selectivity,excellent nanomolar potency,sub-nanomolar potency,poor permeability,limited solubility,–
N=C(N)Nc1cccc(C(=O)NCC(=O)NC[C@H](NC(=O)[C@@H]2CCCN2S(=O)(=O)c2ccccc2)C(=O)O)c1 [Compound 11],more than 10 fold,not still satisfactory,–,–,–,–,–
N=C(N)NCCCCCNC(=O)NC[C@H](NC(=O)[C@@H]1CCCN1S(=O)(=O)c1ccccc1)C(=O)O [Compound 5],–,excellent selectivity,sub-micromolar IC50,sub-nanomolar potency,–,–,–
N=C(N)NCCCCC(=O)Nc1ccc(C[C@H](NC(=O)[C@@H]2CCCN2S(=O)(=O)c2ccccc2)C(=O)O)cc1 [Compound 4],–,–,–,–,–,–,marginal selectivity
